Target: ATP-dependent translocase ABCB1 (Homo sapiens, UniProt P08183)
Assay: TP_TRANSPORTER: inhibition of Rhodamine 123 efflux (R123: 5.2 micro;M) in MDR1 transfected L-5178 cells
Format: functional, cell-based
Conditions: mouse

Chain of ATP-dependent translocase ABCB1 (P08183 whole entry): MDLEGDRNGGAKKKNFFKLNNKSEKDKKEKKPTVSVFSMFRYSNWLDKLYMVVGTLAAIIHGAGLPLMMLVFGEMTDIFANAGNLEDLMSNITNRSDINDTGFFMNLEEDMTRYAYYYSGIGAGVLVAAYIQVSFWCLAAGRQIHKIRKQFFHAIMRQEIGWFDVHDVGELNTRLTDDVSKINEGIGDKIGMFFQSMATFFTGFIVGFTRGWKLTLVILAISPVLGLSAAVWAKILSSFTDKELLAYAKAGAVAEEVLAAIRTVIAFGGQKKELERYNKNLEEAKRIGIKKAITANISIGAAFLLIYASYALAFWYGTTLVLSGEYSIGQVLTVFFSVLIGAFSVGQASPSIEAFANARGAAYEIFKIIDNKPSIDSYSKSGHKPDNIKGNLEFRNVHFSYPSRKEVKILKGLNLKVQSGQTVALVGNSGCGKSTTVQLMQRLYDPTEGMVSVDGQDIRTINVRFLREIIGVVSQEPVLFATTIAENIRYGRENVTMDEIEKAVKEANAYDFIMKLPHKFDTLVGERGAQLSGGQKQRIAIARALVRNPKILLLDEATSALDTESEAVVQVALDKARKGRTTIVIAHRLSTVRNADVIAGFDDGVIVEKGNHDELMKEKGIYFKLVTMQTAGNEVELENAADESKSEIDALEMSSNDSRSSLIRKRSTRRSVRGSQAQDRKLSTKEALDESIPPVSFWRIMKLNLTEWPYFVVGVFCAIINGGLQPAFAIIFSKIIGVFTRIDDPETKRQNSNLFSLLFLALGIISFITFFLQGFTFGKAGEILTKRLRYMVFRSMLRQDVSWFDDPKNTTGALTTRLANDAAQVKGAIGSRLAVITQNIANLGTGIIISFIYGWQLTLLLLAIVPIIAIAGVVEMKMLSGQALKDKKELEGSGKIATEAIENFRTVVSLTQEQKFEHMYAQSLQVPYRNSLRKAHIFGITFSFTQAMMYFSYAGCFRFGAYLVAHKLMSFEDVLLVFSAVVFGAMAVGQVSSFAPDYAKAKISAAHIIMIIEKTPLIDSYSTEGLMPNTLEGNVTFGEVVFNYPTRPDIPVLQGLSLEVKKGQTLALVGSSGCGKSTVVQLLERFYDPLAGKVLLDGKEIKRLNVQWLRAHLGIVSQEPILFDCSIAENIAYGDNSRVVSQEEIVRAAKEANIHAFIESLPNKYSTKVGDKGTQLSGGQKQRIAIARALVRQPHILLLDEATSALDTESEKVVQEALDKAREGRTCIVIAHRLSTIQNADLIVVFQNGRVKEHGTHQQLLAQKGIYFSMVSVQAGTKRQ

Activity: inhibitor [+]
Sequence: PERSIMMON PEEL EXTRACTS
